Measured values as given in patent US20230091225A1, “Bifunctional chimeric heterocyclic compounds for targeted degradation of androgen receptors and use thereof” (HINOVA PHARMACEUTICALS INC., priority 2019, published 2023).

Target: T1, androgen receptor (AR) (Homo sapiens, UniProt P10275)
T1 sequence (P10275 1-920): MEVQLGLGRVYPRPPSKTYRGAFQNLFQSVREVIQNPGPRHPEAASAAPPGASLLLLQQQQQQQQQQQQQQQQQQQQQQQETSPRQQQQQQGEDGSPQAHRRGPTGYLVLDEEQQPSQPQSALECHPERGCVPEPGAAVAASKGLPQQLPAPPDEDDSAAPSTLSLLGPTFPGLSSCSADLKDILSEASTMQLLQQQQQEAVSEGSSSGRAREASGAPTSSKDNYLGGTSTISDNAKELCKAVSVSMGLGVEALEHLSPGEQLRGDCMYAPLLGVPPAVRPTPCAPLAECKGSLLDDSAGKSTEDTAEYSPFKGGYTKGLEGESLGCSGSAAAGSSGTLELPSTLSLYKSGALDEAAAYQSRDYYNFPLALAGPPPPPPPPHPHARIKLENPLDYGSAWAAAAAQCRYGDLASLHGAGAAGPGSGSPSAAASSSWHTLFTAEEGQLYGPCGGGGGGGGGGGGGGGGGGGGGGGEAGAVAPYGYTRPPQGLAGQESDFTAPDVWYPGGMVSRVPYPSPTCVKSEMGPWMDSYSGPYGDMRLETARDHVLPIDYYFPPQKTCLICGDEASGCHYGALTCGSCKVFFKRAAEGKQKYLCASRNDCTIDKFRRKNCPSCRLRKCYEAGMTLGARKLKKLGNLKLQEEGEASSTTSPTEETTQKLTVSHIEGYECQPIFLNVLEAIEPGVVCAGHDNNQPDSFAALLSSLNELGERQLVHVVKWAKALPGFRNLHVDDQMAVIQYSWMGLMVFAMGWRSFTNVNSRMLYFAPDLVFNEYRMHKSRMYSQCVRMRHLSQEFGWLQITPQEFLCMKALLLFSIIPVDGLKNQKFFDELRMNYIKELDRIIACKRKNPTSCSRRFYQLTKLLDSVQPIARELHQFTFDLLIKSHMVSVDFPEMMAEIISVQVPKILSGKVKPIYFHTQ
Experiment: Degradation of androgen receptor (AR) protein in VCaP cells by Western blot
Type: cell-based
Settings: for inhibition at 0.1 µM / % degradation: percentage of degraded AR at 100 nM, VCaP cells, 16 h
Description: Determination of the Degradation Activity of the Compound on Androgen Receptor (AR) Protein by Western Blot
1) VCaP cells were subcultured in cell culture media, and then the cells in good growth condition were seeded in a 12-well plate at 1 ml/well (5×10^5 cells/well), and cultured overnight in a 37° C., 5% CO2 cell incubator. 2) The test compound was prepared into a 10 mM stock solution with dimethyl sulfoxide (DMSO). Prior to use, the solution was diluted 3 times with DMSO. […] of the diluted compound solution was added to the cell culture well (ensuring that the DMSO concentration in the culture system was 0.1%), and two wells were set for each concentration. The plate was gently shaken to mix. In addition, the experiment included negative control wells (containing equal amount of DMSO) and positive control wells. 3) After culturing 16 h. the cells were lysed with RIPA cell lysate, and the protein was extracted. The protein concentration was measured with BCA kit. 5-fold concentrated protein loading buffer was added, and after heated at 100° C. for 5 min. the sample was stored at −20° C. 4) for each well, 30 μg of protein was loaded on polyacrylamide gel for electrophoresis. 5) The protein was transferred from polyacrylamide gel to PVDF membrane, and then 5% skim milk was added to close for 1 h at room temperature. The first antibody (Androgen Receptor (D6F11) XP Rabbit mAb and Anti-β-Actin Rabbit mAb) was added and incubated overnight at 4° C. The membrane was washed with TBST solution three times. 10 min for each time. The secondary antibody (horseradish peroxidase labeled goat […]) was added and incubated at room temperature for 2 h, and then the membrane was washed with TBST solution three times. 10 min for each time.
Finally, ECL chemiluminescence solution was added, and then photos were taken with automatic chemiluminescence instrument to collect pictures for analysis.

| Compound | inhibition at 0.1 µM [%] | also measured |
| --- | --- | --- |
| CC1(C)[C@H](NC(=O)c2ccc(N3CC4CN(CC5CN(c6cc7c(cc6F)C(=O)N(C6CCC(=O)NC6=O)C7=O)C5)CC4C3)nn2)C(C)(C)[C@H]1Oc1ccc(C#N)c(Cl)c1 (some centres unmarked) [Compound 161, N-((1r,3r)-3-(3-chloro-4-cyanophenoxy)-2,2,4,4-tetramethylcyclobutyl)-6-(5-((1-(2-(2,6-dioxopiperidin-3-yl)-6-fluoro-1,3-dioxoisoindolin-5-yl)azelaic acid-3-yl)methyl)hexahydropyrrolo[3,4-c]pyrrol-2(1H)-pyrazole)formamide] | 50 to 79 |  |
| N#Cc1ccc(O[C@H]2CC[C@H](NC(=O)c3ccc(N4CCC(CN5CCC6(CC5)CN(c5cc7c(cc5F)C(=O)N(C5CCC(=O)NC5=O)C7=O)C6)CC4)nn3)CC2)cc1Cl (some centres unmarked) [Compound 231, N-((1r,4r)-4-(3-chloro-4-cyanophenoxy)cyclohexyl)-6-(4-((2-(2-(2-,2,6-dioxopiperidin-3-yl)-6-fluoro-1,3-dioxoisoindolin-5-yl)-2,7-diazaspiro[3.5]nonan-7-yl)methyl)piperidin-1-yl)pyridazine-3-carboxamide] | > 80 |  |
| CC1(C)[C@H](Oc2ccc(C#N)c(Cl)c2)C(C)(C)[C@H]1N1Cc2nc(C#CC3CCN(C4CCN(c5cc6c(cc5F)C(=O)N(C5CCC(=O)NC5=O)C6=O)CC4)CC3)ccc2C1=O (some centres unmarked) [Compound 316] | 25 to 49 |  |
| N#Cc1ccc(O[C@H]2CC[C@H](NC(=O)c3ccc(N4CCC(CN5CC6CN(c7cc8c(cc7F)C(=O)N(C7CCC(=O)NC7=O)C8=O)CC6C5)CC4)nn3)CC2)cc1Cl (some centres unmarked) [Compound 253, N-((1r,4r)-4-(3-chloro-4-cyanophenoxy)cyclohexyl)-6-(4-((5-(2-(2,6-dioxopiperidin-3-yl)-6-fluoro-1,3-dioxoisoindolin-5-yl)Hexahydropyrrolo[3,4-c]pyrrol-2(1H)-yl)methyl)piperidin-1-yl)pyridazine-3-formamide] | 50 to 79 |  |
| CN(C1CCN(c2cc3c(cc2F)C(=O)N(C2CCC(=O)NC2=O)C3=O)CC1)C1CC(C#Cc2ccc3c(n2)CN([C@H]2C(C)(C)[C@H](Oc4ccc(C#N)c(Cl)c4)C2(C)C)C3=O)C1 (some centres unmarked) [Compound 332] | 50 to 79 |  |
| N#Cc1ccc(OC2CCC(NC(=O)c3cnc(N4CCC(NC5CCN(c6cc7c(cc6F)C(=O)N(C6CCC(=O)NC6=O)C7=O)CC5)CC4)cn3)CC2)cc1Cl (centres unmarked) [Compound 73, N-((1r,4r)-4-(3-chloro-4-cyanophenoxy)cyclohexyl)-5-(4-((1-(2,6-dioxopiperidin-3-yl-6-fluoro-1,3-dioxoisoindolin-5-yl)piperidine-4-yl)amino)piperidin-1-yl)pyrazine-2-carboxamide] |  | % degradation: A (>80%) |
| N#Cc1ccc(OC2CCC(NC(=O)c3ccc(N4CCC(CN5CCC6(CC5)CN(c5ccc7c(c5)C(=O)N(C5CCC(=O)NC5=O)C7=O)C6)CC4)nn3)CC2)cc1Cl (centres unmarked) [Compound 230, N-((1r,4r)-4-(3-chloro-4-cyanophenoxy)cyclohexyl)-6-(4-((2-(2-(2,6-dioxopiperidin-3-yl)-1,3-dioxoisoindolin-5-yl)-2,7-diazaspiro[3.5]nonan-7-yl)methyl)piperidin-1-yl)pyridazine-3-carboxamide] |  | % degradation: A (>80%) |
| N#Cc1ccc(O[C@H]2CC[C@H](NC(=O)c3cnc(N4C[C@@H]5[C@@H](CN6CCN(c7ccc8c(c7)C(=O)N(C7CCC(=O)NC7=O)C8=O)CC6)[C@@H]5C4)cn3)CC2)cc1Cl (stereo partly drawn) [Compound 177, N-((1r,4R)-4-(3-chloro-4-cyanophenoxy)cyclohexyl)-5-((1R,5S,6S)-6-((4-(2-(2,6-dioxopiperidin-3-yl)-1,3-dioxoisoindolin-5-yl)piperazin-1-yl)methyl)-3-azabicyclo[3.1.0]hexan-3-yl)pyrazine-2-carboxamide] | 50 to 79 |  |
| N#Cc1ccc(O[C@H]2CC[C@H](NC(=O)c3cnc(N4CC5CN(C6CCN(c7ccc8c(c7)C(=O)N(C7CCC(=O)NC7=O)C8=O)CC6)CC5C4)cn3)CC2)cc1Cl (some centres unmarked) [Compound 69, N-((1r,4r)-4-(3-chloro-4-cyanophenoxy)cyclohexyl)-5-(5-(1-(2-(2,6-dioxopiperidin-3-yl)-1,3-dioxoisoindolin-5-yl)piperidine-4-yl)hexahydropyrrolo[3,4-c]pyrrol-2(1H)-yl)pyrazine-2-carboxamide] | < 25 |  |
| N#Cc1ccc(O[C@H]2CC[C@H](NC(=O)c3cnc(N4CCC(N5CCC6(CCN(c7cc8c(cc7F)C(=O)N(C7CCC(=O)NC7=O)C8=O)C6)C5)CC4)cn3)CC2)cc1Cl (some centres unmarked) [Compound 165, N-((1r,4r)-4-(3-chloro-4-cyanophenoxy)cyclohexyl)-5-(4-(7-(2-(2,6-dioxopiperidin-3-yl)-6-fluoro-1,3-dioxoisoindolin-5-yl)-2,7-diazaspiro[4.4]nonan-2-yl)piperidin-1-yl)pyrazine-2-carboxamide] | > 80 |  |
| N#Cc1ccc(O[C@H]2CC[C@H](NC(=O)c3ccc(N4CC5CN(C[C@@H]6[C@H]7CN(c8ccc9c(c8)C(=O)N(C8CCC(=O)NC8=O)C9=O)C[C@@H]67)CC5C4)nn3)CC2)cc1Cl (some centres unmarked) [Compound 100] | 50 to 79 |  |
| CC1(C)[C@H](Oc2ccc(C#N)c(Cl)c2)C(C)(C)[C@H]1N1Cc2nc(C#CC3CCN(CC4CCN(c5cc6c(cc5F)C(=O)N(C5CCC(=O)NC5=O)C6=O)CC4)CC3)ccc2C1=O (some centres unmarked) [Compound 333] | 50 to 79 |  |
| N#Cc1ccc(O[C@H]2CC[C@@H](NC(=O)c3cnc(N4CCN([C@@H]5C[C@@H]6CN(c7cc8c(cc7F)C(=O)N(C7CCC(=O)NC7=O)C8=O)C[C@@H]6C5)CC4)cn3)CC2)cc1Cl (stereo partly drawn) [Compound 295, N-((1s,4s)-4-(3-chloro-4-cyanophenoxy)cyclohexyl)-5-(4-((3aR,5R,6aS)-2-(2-(2,6-dioxopiperidin-3-yl)-6-fluoro-1,3-dioxoisoindolin-5-yl)octahydrocyclopenta[c]pyrrol-5-yl)piperazin-1-yl)pyrazine-2-carboxamide] |  | % degradation: C (49%-25%) |
| N#Cc1ccc(O[C@H]2CC[C@H](NC(=O)c3cnc(N4CC(CN5CC6CN(c7cc8c(cc7F)C(=O)N(C7CCC(=O)NC7=O)C8=O)CC6C5)C4)nc3)CC2)cc1Cl (some centres unmarked) [Compound 140] | 25 to 49 |  |
| N#Cc1ccc(O[C@H]2CC[C@H](NC(=O)c3cnc(N4CCN(C[C@@H]5[C@H]6CN(c7cc8c(cc7F)C(=O)N(C7CCC(=O)NC7=O)C8=O)C[C@@H]56)CC4)cn3)CC2)cc1Cl (some centres unmarked) [Compound 99] |  | degradation activity on AR at different concentrations (FIG. 1): concentration-dependent manner |
| N#Cc1ccc(O[C@H]2CC[C@H](NC(=O)c3ccc(N4CCC5(CCN(CC6CCN(c7cc8c(cc7F)C(=O)N(C7CCC(=O)NC7=O)C8=O)CC6)C5)C4)nn3)CC2)cc1Cl (some centres unmarked) [Compound 162, N-((1r,4r)-4-(3-chloro-4-cyanophenoxy)cyclohexyl)-6-(7-((1-(2-(2,6-dioxopiperidin-3-yl)-6-fluoro-1,3-dioxoisoindolin-5-yl)piperidine-4-yl)methyl)-2,7-diazaspiro[4.4]nonan-2-yl)pyridazine-3-formamide] | > 80 |  |
| N#Cc1ccc(O[C@H]2CC[C@H](NC(=O)c3ccc(N4CCC(N5CC6(CCN(c7cc8c(cc7F)C(=O)N(C7CCC(=O)NC7=O)C8=O)C6)C5)CC4)nn3)CC2)cc1Cl (some centres unmarked) [Compound 103, N-((1r,4r)-4-(3-chloro-4-cyanophenoxy)cyclohexyl)-6-(4-(6-(2-(2,6-dioxopiperidin-3-yl)-6-fluoro-1,3-dioxoisoindolin-5-yl)-2,6-diazaspiro[3.4]octane-2-yl)piperidin-1-yl)pyridazine-3-formamide] | > 80 |  |
